Source: paper PMC9864848, “A Study of the Interaction between Xanthine Oxidase and Its Inhibitors from Chrysanthemum morifolium Using Computational Simulation and Multispectroscopic Methods” (Metabolites, 2023)
Read-outs that look alike come from different tables or passages of the source.

Assays:
xanthine oxidase = target: T1, xanthine oxidase (Bos taurus, UniProt P80457); assay: Xanthine oxidase (XO) inhibitory assay; type: biochemical, Bovine; conditions: read-out: XO inhibition (%)
T1 construct: purchased Roche Diagnostics (Mannheim, Germany)
T1 sequence (P80457 whole entry): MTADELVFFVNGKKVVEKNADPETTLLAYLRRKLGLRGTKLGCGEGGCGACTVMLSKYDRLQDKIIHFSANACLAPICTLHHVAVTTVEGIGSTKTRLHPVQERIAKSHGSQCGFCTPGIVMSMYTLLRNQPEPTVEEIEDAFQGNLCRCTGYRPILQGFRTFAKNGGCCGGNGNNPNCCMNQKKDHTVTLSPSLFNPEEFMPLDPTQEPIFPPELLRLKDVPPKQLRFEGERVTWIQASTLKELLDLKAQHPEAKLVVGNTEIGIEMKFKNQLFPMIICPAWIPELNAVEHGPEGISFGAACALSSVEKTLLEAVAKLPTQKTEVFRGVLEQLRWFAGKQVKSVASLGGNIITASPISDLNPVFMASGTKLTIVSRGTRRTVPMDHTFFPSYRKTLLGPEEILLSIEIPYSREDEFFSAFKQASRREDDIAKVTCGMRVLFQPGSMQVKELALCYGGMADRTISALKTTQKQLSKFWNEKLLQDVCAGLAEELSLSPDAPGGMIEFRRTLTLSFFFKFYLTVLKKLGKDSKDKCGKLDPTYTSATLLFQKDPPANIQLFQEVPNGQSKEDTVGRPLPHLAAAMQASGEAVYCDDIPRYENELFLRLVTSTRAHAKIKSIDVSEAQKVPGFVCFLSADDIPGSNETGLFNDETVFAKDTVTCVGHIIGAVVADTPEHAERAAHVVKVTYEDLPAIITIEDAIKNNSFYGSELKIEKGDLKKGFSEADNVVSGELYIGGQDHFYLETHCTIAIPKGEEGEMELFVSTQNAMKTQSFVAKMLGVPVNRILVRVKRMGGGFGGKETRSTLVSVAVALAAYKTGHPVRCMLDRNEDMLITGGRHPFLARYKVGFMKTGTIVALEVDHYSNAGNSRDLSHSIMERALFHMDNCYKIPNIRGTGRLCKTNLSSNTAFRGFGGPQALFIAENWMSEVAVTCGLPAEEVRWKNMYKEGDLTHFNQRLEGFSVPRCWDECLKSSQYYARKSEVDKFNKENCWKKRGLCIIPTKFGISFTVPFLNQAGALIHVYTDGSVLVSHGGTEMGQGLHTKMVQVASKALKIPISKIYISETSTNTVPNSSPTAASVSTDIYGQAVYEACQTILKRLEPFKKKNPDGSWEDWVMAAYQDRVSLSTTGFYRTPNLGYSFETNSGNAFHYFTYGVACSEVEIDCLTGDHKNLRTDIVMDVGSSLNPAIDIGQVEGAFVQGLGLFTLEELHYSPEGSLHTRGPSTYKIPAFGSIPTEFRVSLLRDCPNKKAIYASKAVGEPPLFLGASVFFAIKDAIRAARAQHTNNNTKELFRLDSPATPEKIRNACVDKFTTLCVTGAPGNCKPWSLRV
Description: A total of 100 μL of test samples containing dimethyl sulfoxide (100 μg/mL) and 0.1 U/mL xanthine oxidase (100 µL) were added to a 0.05 M potassium phosphate buffer (1.3 mL, pH 7.5). The mixture was then incubated at 25 °C for 10 min. A 1 mL of 0.15 mM xanthine was added into the solution, then incubated at 30 °C for 10 min. […] The percentage of XO inhibition was calculated as follows: Inhibition (%)=Absorbancenegative control−Absorbancesample/Absorbancenegative control×100% Absorbancenegative control = Absorbance of the negative control (without inhibitors) Absorbancesample = Absorbance of the solution containing test samples

XO [1] = target: T2, XO (Bos taurus, UniProt P80457); assay: Fluorescence quenching assay of XO; type: binding, Bovine; conditions: pH 7.5; for Kd: Modified Stern-Volmer association constant Ka
T2 construct: purchased Roche Diagnostics (Mannheim, Germany)
T2 sequence (P80457 whole entry): as above
Description: The assay was carried out by referring to a previous method with slight modifications. […] Titrations were performed manually and mixed carefully. […] The excitation wavelength was set at 280 nm, and the excitation and emission slits were 5 nm. The fluorescence background was corrected by subtracting the relevant blanks corresponding to the potassium phosphate buffer (pH 7.5).
To distinguish the mechanism of quenching various inhibitors on XO, the fluorescence quenching output was analyzed by applying the Stern-Volmer equation [34]: F0/F=1+KSV[Q]=1+Kqτ0[Q] where F0 and F represent the steady-state fluorescence intensities of XO in the absence and presence of the respective inhibitor. KSV is the Stern-Volmer quenching constant, determined from the slope of the linear regression of F0/F against the [Q] plot. [Q] represents the concentration of the inhibitor.
Then, Ka values for the inhibitor-XO complex at three different temperatures were calculated from the linear regression of F0/(F0 − F) against 1/[Q].

XO [2] = target: T2, XO; assay: Circular dichroism (CD) analysis of XO secondary structure; set-up: species or system Bovine
Description: The analysis was carried out according to a modified method. […] The measurement was performed in potassium phosphate buffer (pH 7.5) at room temperature. […] The JASCO SSE (Secondary Structure Estimation) software was used to analyze the CD spectroscopic data with Reed’s reference to obtain the data of various secondary structures of XO with respective ligands.

XO [3] = conditions: cited from earlier work
[4] = molar ratio XO:inhibitor 1:5, pH 7.5 (free XO 15.4)
[5] = molar ratio XO:inhibitor 1:5, pH 7.5 (free XO 19.7)
[6] = molar ratio XO:inhibitor 1:5, pH 7.5 (free XO 65.0)
[7] = molar ratio XO:inhibitor 1:10, pH 7.5 (free XO 15.4)
[8] = molar ratio XO:inhibitor 1:10, pH 7.5 (free XO 19.7)
[9] = molar ratio XO:inhibitor 1:10, pH 7.5 (free XO 65.0)
[10] = at 100 μg/mL, mean ± SEM, n = 3
[11] = previous study, read-out: IC50 (XO inhibitory effect)

inhibition at 100 µg/mL (xanthine oxidase; [10]) [%]	SMILES	inhibition at 100 µg/mL (xanthine oxidase) [%]	Quenching constant KSV (XO [1]; 298 K) [L/mol]	Quenching rate constant Kq (XO [1]; 298 K) [M⁻¹ s⁻¹]	Quenching constant KSV (XO [1]; 304 K) [L/mol]	Quenching rate constant Kq (XO [1]; 304 K) [M⁻¹ s⁻¹]	Quenching constant KSV (XO [1]; 310 K) [L/mol]	Quenching rate constant Kq (XO [1]; 310 K) [M⁻¹ s⁻¹]	Random Coil (%) of XO (XO [2]; [4]) [%]	α-Helix (%) of XO (XO [2]; [5]) [%]	β-Sheet (%) of XO (XO [2]; [6]) [%]	Random Coil (%) of XO (XO [2]; [7]) [%]	α-Helix (%) of XO (XO [2]; [8]) [%]	β-Sheet (%) of XO (XO [2]; [9]) [%]	IC50 (XO [3]; [11]) [µM]	Kd (XO [1]; 298 K) [µM]	Kd (XO [1]; 304 K) [µM]	Kd (XO [1]; 310 K) [µM]	XO inhibitory potency (in words) (XO [3]; ref 28 (Mohos et al.))	IC50 (XO [3]; ref 27 (Chang et al.), read-out: IC50 (XO inhibition)) [µM]
–	Oc1ncnc2[nH]ncc12 [Allopurinol, allopurinol, reference compound]	96.5 ± 2.4	–	–	–	–	–	–	–	–	–	–	–	–	–	–	–	–	–	–
81.9 ± 3.31	O=c1c(O)c(-c2ccc(O)cc2)oc2cc(O)cc(O)c12 [Kaempferol, kaempferol]	–	97700	3.489e+13	396400	1.416e+14	277900	9.925e+13	11.2	17.1	71.7	34.2	0.0	65.8	2.18 ± 0.02	–	–	–	–	–
–	COc1cc(CC(=O)O)ccc1O [Homovanillic acid, homovanillic acid]	30 ± 2.18	49100	1.754e+13	93100	3.325e+13	698800	2.4957e+14	0.0	36.3	63.7	27.0	5.1	67.9	–	5.61	2.67	4.15	less potent inhibitor of XO	–
56.6 ± 1.77	O=c1cc(-c2ccc(O)cc2)oc2cc(O)cc(O)c12 [Apigenin, apigenin]	–	130200	4.65e+13	332400	1.187e+14	182100	6.504e+13	22.2	10.8	67.0	0.0	36.7	63.3	3.2	5.33	3.5	4.3	–	–

SMILES	inhibition at 100 µg/mL (xanthine oxidase; [10]) [%]	inhibition at 100 µg/mL (xanthine oxidase) [%]	Quenching constant KSV (XO [1]; 298 K) [L/mol]	Quenching rate constant Kq (XO [1]; 298 K) [M⁻¹ s⁻¹]	Quenching constant KSV (XO [1]; 304 K) [L/mol]	Quenching rate constant Kq (XO [1]; 304 K) [M⁻¹ s⁻¹]	Quenching constant KSV (XO [1]; 310 K) [L/mol]	Quenching rate constant Kq (XO [1]; 310 K) [M⁻¹ s⁻¹]	Random Coil (%) of XO (XO [2]; [4]) [%]	α-Helix (%) of XO (XO [2]; [5]) [%]	β-Sheet (%) of XO (XO [2]; [6]) [%]	Random Coil (%) of XO (XO [2]; [7]) [%]	α-Helix (%) of XO (XO [2]; [8]) [%]	β-Sheet (%) of XO (XO [2]; [9]) [%]	IC50 (XO [3]; [11]) [µM]	Kd (XO [1]; 298 K) [µM]	Kd (XO [1]; 304 K) [µM]	Kd (XO [1]; 310 K) [µM]	XO inhibitory potency (in words) (XO [3]; ref 28 (Mohos et al.))	IC50 (XO [3]; ref 27 (Chang et al.), read-out: IC50 (XO inhibition)) [µM]
O=C(O)/C=C/c1ccccc1 [Trans-cinnamic acid, trans-cinnamic acid]	57.6 ± 6	–	180000	6.429e+13	282300	1.008e+14	278400	9.943e+13	0.0	36.4	63.6	22.7	10.4	66.9	–	8.02	3.62	3.49	–	> 200
